Reference: article PMC4735261, “Identification of DYRK1B as a substrate of ERK1/2 and characterisation of the kinase activity of DYRK1B mutants from cancer and metabolic syndrome” (Cellular and Molecular Life Sciences: CMLS, 2015)

Molecular target: T1, DYRK1B (Homo sapiens, UniProt Q9Y463)
T1 construct: Recombinant DYRK1B expressed in insect cells (Carna Biosciences)
Test: in vitro enzyme assay; MRM mass spectrometry of autophosphorylation sites
Format: biochemical

T1 sequence (Q9Y463 whole entry): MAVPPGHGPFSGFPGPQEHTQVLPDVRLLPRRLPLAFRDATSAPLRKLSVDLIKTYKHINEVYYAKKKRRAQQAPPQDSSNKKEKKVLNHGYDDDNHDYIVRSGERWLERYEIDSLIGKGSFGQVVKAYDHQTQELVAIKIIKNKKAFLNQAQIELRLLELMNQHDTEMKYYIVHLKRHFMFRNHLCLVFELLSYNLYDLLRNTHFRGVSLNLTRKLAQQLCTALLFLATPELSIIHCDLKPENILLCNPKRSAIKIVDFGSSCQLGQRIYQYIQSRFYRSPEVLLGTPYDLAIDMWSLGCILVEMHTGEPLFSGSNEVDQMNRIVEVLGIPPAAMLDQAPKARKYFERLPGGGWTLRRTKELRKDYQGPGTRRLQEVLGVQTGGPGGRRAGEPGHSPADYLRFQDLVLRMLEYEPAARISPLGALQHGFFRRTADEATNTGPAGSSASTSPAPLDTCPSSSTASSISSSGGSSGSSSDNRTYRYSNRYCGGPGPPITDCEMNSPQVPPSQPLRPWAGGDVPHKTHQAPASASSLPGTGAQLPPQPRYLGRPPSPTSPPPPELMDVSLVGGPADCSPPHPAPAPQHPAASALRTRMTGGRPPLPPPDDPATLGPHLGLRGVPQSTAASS

Substance AZ’294 has an IC50 of less than 0.03 µM.
